The target of data set [1] is T1, MMP-1 (human interstitial collagenase) (Homo sapiens, UniProt P03956).
T1 construct: truncated recombinant enzyme encompassing residues 101-269
T1 sequence (P03956 101-269): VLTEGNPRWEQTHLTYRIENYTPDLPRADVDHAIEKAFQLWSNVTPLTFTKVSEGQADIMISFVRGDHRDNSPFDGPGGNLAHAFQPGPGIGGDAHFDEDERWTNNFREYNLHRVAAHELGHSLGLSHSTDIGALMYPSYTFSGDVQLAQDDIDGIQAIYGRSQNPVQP
Nature of the data set: Biochemical Assay (Protocol A): inhibition of human collagenase, fluorimetric peptide substrate. As to conditions: MMP-1, pH 7.4, 37° C. The source says: (§1) As mentioned above, although low molecular weight MMP inhibitors, including hydroxamates of general formula (A), are already known, there is a strong need for better and diversified molecules for their use in medicine, that is in particular in the control or prevention of degenerative joint diseases such as rheumatoid arthritis and osteoarthritis, or in the management of multiple sclerosis, or in the treatment of invasive tumors. […] For example, the following protocol was used to assess the biochemical activity of compounds of formula (I) against MMP-1, MMP-2, and MMP-3 (respectively, human interstitial collagenase, gelatinase A, and stromelysin-1).
(§2) Human gelatinase-A (MMP-2) was obtained as pro-enzyme (72 kDa) and was activated with 1 mM 4-aminophenylmercuric acetate for 30 min at 37° C. immediately prior to use. Human stromelysin-1 (MMP-3) was obtained as a recombinant pro-enzyme isolated either from E. coli or from baculovirus infected Sf9 insect cells and activated either by heat (1 h, 55° C.) or by 5 mg/l trypsin (30 min, 37° C.) before addition of soybean trypsin inhibitor, finally removed by centrifugation.
(§3) All enzyme assays to determine values of the enzyme-inhibitor dissociation constants were performed using the peptide substrate (7-methoxycoumarin-4-yl)Acetyl-Pro-Leu-Gly-Leu-(3-[2,4-dinitrophenyl]-L-2,3-diaminopropionyl)-Ala-Arg-NH2 (Mca-Pro-Leu-Gly-Leu-Dpa-Ala-Arg--NH2) (C. G. Knight et al., FEBS Lett. 296:263-266, 1992). The enzymes cleave at the Gly-Leu bond removing the internally quenching Dpa group. The release of the highly fluorescent peptide Mca-Pro-Leu was followed fluorimetrically setting the excitation wavelength at 326 nm (bandwidth 5 nm) and the emission at 392 nm (bandwidth 20 nm).
(§4) Continuous fluorescence assay was carried out using a Perkin Elmer LS-50 Fluorescence Spectrophotometer fitted with a thermostatted four position stirring cell changer. Inhibitors were dissolved in the assay buffer ([…] Tris/HCl pH 7.4 containing 0.15 M NaCl, 10 mM CaCl2, 0.01 mM ZnCl2 and 0.05% Brij 35) thermostatted at 37° C. The reaction was started by the addition of substrate ([…]), followed by the addition of the enzyme (e.g. 1.0 nM collagenase, 0.04 nM gelatinase, or 3.0 nM stromelysin) and the increase in fluorescence was monitored over 30 min. The run was repeated at different concentrations of inhibitors in the range 0.1-10000 nM and data at inhibitor concentration in the region if their enzyme-inhibitor dissociation constants were used for calculation.
(§5) Substrate consumption was within 5% of the initial concentration and data outside this range were discarded. The Michaelis constants (Km) for the enzyme-substrate complexes is […] or greater (C. G. Knight et al., reference above), so that the factor (1+S/Km) can be approximated to unity without appreciable error.

The target in data set [2] is T2, MMP-2 (human gelatinase A) (Homo sapiens, UniProt P08253).
T2 sequence (P08253 110-660): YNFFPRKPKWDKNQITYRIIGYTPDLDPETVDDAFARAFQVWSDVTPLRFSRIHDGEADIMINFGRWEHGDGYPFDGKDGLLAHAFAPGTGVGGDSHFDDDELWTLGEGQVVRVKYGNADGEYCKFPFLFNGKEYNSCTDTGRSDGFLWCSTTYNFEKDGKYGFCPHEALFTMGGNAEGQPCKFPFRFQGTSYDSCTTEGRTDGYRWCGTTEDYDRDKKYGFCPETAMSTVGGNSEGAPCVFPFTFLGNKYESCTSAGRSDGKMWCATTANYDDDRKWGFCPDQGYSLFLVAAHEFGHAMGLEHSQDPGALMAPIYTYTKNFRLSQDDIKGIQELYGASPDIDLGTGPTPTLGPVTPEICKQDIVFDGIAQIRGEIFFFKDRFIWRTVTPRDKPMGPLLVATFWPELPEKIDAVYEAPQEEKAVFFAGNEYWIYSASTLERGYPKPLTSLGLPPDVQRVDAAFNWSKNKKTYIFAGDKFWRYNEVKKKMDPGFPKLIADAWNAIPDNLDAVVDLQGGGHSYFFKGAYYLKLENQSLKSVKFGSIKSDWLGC
Kind of data set: Biochemical Assay (Protocol A): inhibition of human gelatinase A, fluorimetric peptide substrate. As to conditions: MMP-2, pH 7.4, 37° C.
Description: as §1, §2, §3, §4, §5

Data set [3] addresses T3, MMP-3 (human stromelysin-1) (Homo sapiens, UniProt P08254).
T3 construct: host or cells: E. coli or baculovirus-infected Sf9 insect cells
Nature of the data set: Biochemical Assay (Protocol A): inhibition of human stromelysin-1, fluorimetric peptide substrate. As to conditions: MMP-3, pH 7.4, 37° C.
Description: as §1, §2, §3, §4, §5

The nature of data set [4]: Pharmacokinetic Assay (Protocol C): plasma levels after i.v. and oral administration to rats. Type of data set: in vivo, rat (male Sprague-Dawley). As to conditions: 15 mg/kg. Here is the method:
Male rats (Sprague-Dawley; body weight about 250-300 g) were acclimatized for about one week before the start of the study. […] Before treatment, rats were overnight fasted. For each compound to be assessed, three rats were treated intravenously (injection in the tail vein as a bolus) with a single dose of 15 mg/kg (as free base or free acid if needed) body weight. Other three rats were treated orally (single bolus dose by gastric gavage) with 15 mg/kg of the same compound. In same cases, according to the detection limit of each particular compound, and its availability in stock, these standard doses were modified as needed.
Blood samples were collected into syringes especially prepared for use with the cannulated animals via the SCV cannula. Under standard conditions, blood samples (0.2 mL) were transferred into heparinized tubes at the following times: 0 (pre-dose), 2, 4, 8, 16, 30, 45, 60, 90 min, 2, 4, 6, 8 and 24 h after iv administration; 0 (pre-dose), 5, 10, 30, 45, 60, 90 min, 2, 4, 6, 8, and 24 h after oral administration. Plasma was obtained immediately by centrifugation (about 10,000 rpm for 3 min) and stored at -80° C. till analysis. Plasma samples were assayed for parent drug concentrations using an appropriate analytical method. Under standard conditions, liquid chromatography--tandem mass spectrometry (LC/MS-MS) was used.
Non-compartmental pharmacokinetic calculations were performed with the aid of Pharm-NCA package (SIMED, France). Maximum plasma concentration, Cmax, and the corresponding time, tmax, were read as the coordinates of the highest raw-data point for individual plasma profiles. Terminal phase was evaluated by graphic judgement by eye; terminal rate constant, was calculated as the slope of the terminal linear portion of natural log-transformed plasma concentrations vs. time curve, obtained using linear regression. Terminal half-life, t1/2,z, was calculated as ln(2)/lz. The area under the plasma concentration-time curve was estimated by the linear trapezoidal rule up to the last measured concentration (AUC(0-tz)) and extrapolated to infinity assuming monoexponential decay, using the formula AUC=AUC(0-tz)+C(tz)/lz, where C(tz) is the measured concentration of the last point with detectable concentration. Following iv dosing, systemic clearance was obtained using the formula Cl=Dose/AUC. According to Protocol C, the pharmacokinetic in rats of some representative compounds within the present invention was evaluated. Significant pharmacokinetic data obtained in rats at a 15 mg/kg dose were as follows: […]

For data set [5], the system named is Human DU145 Prostatic Carcinoma cells. Kind of data set: Antitumor Efficacy Assay (Protocol D): DU145 tumor growth inhibition in Balb nu/nu mice. Type of data set: in vivo, human tumor in Balb nu/nu mice. As to conditions: 100 mg/kg b.i.d., i.p., day +1 to day +20; p<0.01, Dunnett method. The text has this: The novel compounds of formula (I) can be used in a method of treatment of the human or animal body by therapy. The condition of a human or animal patient may thus be improved. In particular, compounds the present invention can be used to limit the local growth of established tumors, and to limit growth of secondary metastases. The following protocol was used to evaluate the antitumoral efficacy in vivo of the compounds of the present invention:
Human DU145 Prostatic Carcinoma cells (2×10^6) were injected subcutaneously at day 0 in Balb nu/nu mice. Treatment with inhibitor (i.p. injection) started at day +1 and terminated at day +20. Animal were sacrificed at day +21, and the tumors exised and weighted. Percent tumor growth inhibition vs. control mice (% TGI) was calculated as follows:
% TGI=100-(Mean Tumor Weight in treated group)/(Mean Tumor Weight in […]

T3 sequence (P08254 100-477): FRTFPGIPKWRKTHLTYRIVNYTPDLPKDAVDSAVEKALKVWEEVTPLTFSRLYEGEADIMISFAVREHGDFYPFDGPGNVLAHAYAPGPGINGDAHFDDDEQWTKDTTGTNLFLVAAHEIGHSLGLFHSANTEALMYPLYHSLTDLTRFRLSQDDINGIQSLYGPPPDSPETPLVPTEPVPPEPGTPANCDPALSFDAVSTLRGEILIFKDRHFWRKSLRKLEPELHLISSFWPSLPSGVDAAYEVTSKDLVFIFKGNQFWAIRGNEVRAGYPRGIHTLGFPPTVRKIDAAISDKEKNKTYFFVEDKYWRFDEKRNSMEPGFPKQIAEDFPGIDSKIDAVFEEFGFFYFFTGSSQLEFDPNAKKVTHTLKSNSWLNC

For orientation: Ki means the equilibrium dissociation constant of an inhibitor or competing ligand from its target. A higher Ki goes with lower affinity. For orientation: AUC means the area under the concentration-time curve, a measure of exposure. Low values mean low exposure, high ones high exposure. As to `CNC(=O)[C@@H](NC(=O)[C@H](CC(C)C)[C@](O)(COC(=O)NC1CCCCC1)C(=O)NO)C(C)(C)C` [Example 16, [(2R,3S)-3-(N-Cyclohexylaminocarbonyl)oxymethyl-3-hydroxy-4-hydroxyamino-2-isobutylsuccinyl]-L-tert-leucine-N-methylamide], the Ki was found to be 1.5 nM in data set [1], 3.2 nM in data set [2] and 23 nM in data set [3]. For the same compound, the “plasma clearance compared with literature hydroxamic acid MMP inhibitors” value in data set [4] (to our best knowledge) is “inferior to that reported for any hydroxamic acid MMP inhibitor disclosed in the literature”. In data set [4] (iv), this compound showed an AUC iv of 1.35 mg·min/mL. Moreover, the half-life in data set [4] (rat, plasma, terminal half-life, read-out: t1/2,z (converted)) was 2.3 h. Further, in data set [4] (rat, plasma, iv), the clearance was 11 mL/min/kg. In data set [4] (rat, plasma, oral), this compound had an AUC of 1330 ng·h/mL. In addition, the “TGI (percent tumor growth inhibition vs. control)” value in data set [5] came to 83%.
